What was measured:
human renin = target: T1, human renin (Homo sapiens, UniProt P00797); experiment: human renin inhibition assay in vitro (angiotensin I produced, radioimmunoassay); assay type: biochemical; details: human plasma, pH 7.4, two hours at 37° C.
T1 construct: purchased National Institute for Biological Standards, London
T1 sequence (P00797 67-406): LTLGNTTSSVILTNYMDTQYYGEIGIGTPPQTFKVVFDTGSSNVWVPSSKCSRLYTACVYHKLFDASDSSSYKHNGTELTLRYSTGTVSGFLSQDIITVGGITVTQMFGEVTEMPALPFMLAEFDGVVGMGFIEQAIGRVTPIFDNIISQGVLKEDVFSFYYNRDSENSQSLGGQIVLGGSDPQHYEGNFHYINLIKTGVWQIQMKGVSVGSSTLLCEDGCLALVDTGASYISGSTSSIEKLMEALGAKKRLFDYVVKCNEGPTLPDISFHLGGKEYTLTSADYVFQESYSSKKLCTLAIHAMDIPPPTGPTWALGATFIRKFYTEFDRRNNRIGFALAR
Protocol: (§1) Compounds of Formula I were evaluated as inhibitors of human renin in an in vitro assay, as follows: This human renin inhibition test has been previously described in detail [Papaioannou, et al., Clinical and Experimental Hypertension, A7(9), 1243-1257 (1985)]. Human renin was obtained from the National Institute for Biological Standards, London. In a total volume of 0.25 mL 100 mM Tris-acetate buffer at pH 7.4, 25×10-6 Goldblatt units of renin, 0.05 mL of plasma from human volunteers taking oral contraceptives, 6.0 mM sodium EDTA, 2.4 mM phenylmethyl sulfonyl fluoride, 1.5 mM 8-hydroxyquinoline, 0.4 mg/mL BSA, and 0.024 mg/mL neomycin sulfate were incubated for two hours at 37° C. in the presence or absence of renin inhibitors. The produced angiotensin I was determined by radioimmunoassay (New England Nuclear kit). Compounds to be assayed were solubilized in either ethyl alcohol or DMSO and diluted with 100 mM Tris-acetate buffer at pH 7.4 to the appropriate concentration. The final concentration of organic solvent in the reaction mixture was less than 1%. Control incubations at 37° C. were used to correct for effects of organic solvent on renin activity.

hog renin = hog renin inhibition assay in vitro (angiotensin I produced, radioimmunoassay); assay type: biochemical; details: 20 micromolar synthetic tetradecapeptide substrate, pH 7.4, one hour at 37° C.
Protocol: as §1
The hog renin inhibition assay was performed in a manner similar to the human renin assay, with the following modifications. […] The amount of angiotensin I produced was determined as for the human renin inhibition assay.

Question: With `CC(C)C[C@H](NC(=O)C(CC(=O)N1CCOCC1)Cc1cccc2ccccc12)C(=O)N[C@@H](CC1CCCCC1)[C@@H](O)CO` (stereo partly drawn) [Example 9, 3-(N-morpholinocarbonyl)-2-(R,S)-(1-naphthylmethyl)-propionyl-L-leucinamide of (2S ,3R)-2-amino-1-cyclohexyl-3,4-dihydroxybutane] as the molecule, how does the IC50 (human renin) read?
Answer: 0.74 µM

Question: What about the IC50 (hog renin) of the same molecule?
Answer: 2.8 µM

Reference: patent publication US5416111A, “Cyano-containing n-phenyl-amino-terminated non-peptidyl α-succinamidoacyl aminodiols as anti-hypertensive agents” (G.D. Searle & Co., priority 1993, dated 1995)
